From US8728470B2, “CAB molecules” (Danisco US Inc., priority 2004, dated 2014)

Test: PK and tissue distribution of GC-Mel/Mel at various intervals after CAB 1.11i in TLS174T xenograft mice
Format: in vivo, Ncr athymic nude mice
Description: We assessed the tumor retention characteristics of CAB1.11i by monitoring the formation of Mel from the administration of GC-Mel. Dosing solutions were prepared on the day of dosing, within 60 minutes of administration.
The concentration of the formulation of GC-Mel in bicarbonate/sucrose was based on average […] weight, the desired volume of administration and a dose level of 150 mg/kg. GC-Mel was weighed out and, based on this weight, the appropriate amount of sodium bicarbonate to neutralize all 3 equivalents of the three carboxylic acid sites of GC-Mel was determined. Vehicle was prepared in the required volume by adding the precalculated sodium bicarbonate solution in 5% aqueous sucrose. Vehicle was prechilled at 4° C. Cold vehicle was added to the GC-Mel powder and the mixture was vortexed and sonicated to achieve speedy dissolution.
The animals were be implanted subcutaneously on the flank with 2×10^6 TLS174T cells, a human colorectal tumor line, in 100 μl of phosphate buffered saline. Beginning approximately one week after tumor cell implant, tumors were measured every 3 to 4 days. When the tumors reached approximately 100-250 mm^3, 156 animals were selected based on tumor size and randomized into 7 groups, resulting in a non-significant difference in the mean tumor size between groups at the start of the experiment.
Mice were warmed with a heating lamp and heating pad, placed in a restrainer and the test compounds were administered by bolus intravenous injection via the tail vein. For the blood sampling, all mice were anesthetized by isoflurane inhalation at the time of sample collection. Blood was collected by cardiac puncture into tubes containing EDTA and placed on ice. Tubes were centrifuged at 4000 RPM for two minutes. The plasma fraction was removed into a pre-labeled microfuge tube and placed on dry ice or liquid nitrogen. Sample concentrations were determined.
Tissue samples were rinsed 1× in phosphate buffered saline to remove blood. The samples were snap frozen using liquid nitrogen or dry ice. Tissue samples were stored at −70° C. prior to analysis. […]

In the case of `N[C@@H](Cc1ccc(N(CCCl)CCCl)cc1)C(=O)O` [Mel, Melphalan], the “plasma Mel level” value (GC-Mel 150 mg/kg given 96 hrs after CAB 1.11i 1 mg/kg) is reported as “decreased to near background (concomitant) levels”, the “plasma and kidney exposure to Mel (AUC)” value (with increased interval between CAB 1.11i and GC-Mel doses, FIG. 17) is reported as “decreased” and the “systemic melphalan exposure (AUC)” value (with increasing interval, FIG. 18) is reported as “decreased”.
